Tested on: human airway epithelial cells (HAECs)
Test: High-throughput sequencing (HTS) of miRNAs at four stages of differentiation of HAECs
Conditions: for Modulation (ratio of the level of intensity of expression in log2 in two stages of differentiation), D7 − D0 / Modulation (ratio of the level of intensity of expression in log2 in two stages of differentiation), FC − D7 / Modulation (ratio of the level of intensity of expression in log2 in two stages of differentiation), WD − D0 / Modulation (ratio of the level of intensity of expression in log2 in two stages of differentiation), WD − FC / Abundance (%), D0 / Level of intensity of expression in log2, D0 / Abundance (%), D7 / Level of intensity of expression in log2, D7 / Abundance (%), FC / Level of intensity of expression in log2, FC / Abundance (%), WD / Level of intensity of expression in log2, WD: HTS; for Abundance (%), D0: ALI-D0; for Level of intensity of expression in log2, D0: ALI-D0 (proliferation); for Abundance (%), D7: ALI-D7; for Level of intensity of expression in log2, D7: ALI-D7 (proliferation and polarization); for Abundance (%), FC: ALI-FC; for Level of intensity of expression in log2, FC: ALI-FC (start of ciliogenesis); for Abundance (%), WD: ALI-WD; for Level of intensity of expression in log2, WD: ALI-WD (wholly differentiated epithelium); for Level of intensity of expression in log2 At the differentiated stage (WD) measured in HTS: healthy human airway epithelial tissue
Text: The total RNAs were extracted from HAECs cultivated at the air-liquid interface at four stages of differentiation: ALI-D0 (0 day), ALI-D7 (7 days), ALI-FC (during appearance of the first cilia at about 14 days) and ALI-WD (wholly differentiated at about 21 days). The cells are lysed in reagent with Trizol® (Invitrogen). The total RNAs containing small RNAs and microRNAs are purified on Qiagen RNEasy columns (Qiagen) according to the supplier's instructions.
The total RNAs containing small RNAs and microRNAs are isolated as before. The procedure is based on the Applied Biosystems Ligase-Enhanced Genome Detection technology (LEGenD™); the SOLiD™ Small RNA Expression kit (Applied Biosystems, France) was used. With this method it is possible to convert the small RNAs of a sample into a library of double-stranded DNA; it was developed by Applied Biosystems SOLiD™ System for a new generation of high-throughput sequencing.
The high-throughput sequencing of the microRNAs was carried out according to the supplier's recommendations. Briefly, the total RNAs containing the small RNAs are hybridized (65° C., 10 min, then at 16° C., 5 min) and ligated (16° C., 2-16 h in a thermocycler) with the Adaptor Mix A for producing a matrix for sequencing the 5′ end of the small RNAs, or with the Adaptor Mix B for sequencing the 3′ end. The samples are then reverse-transcribed (42° C., 30 min) to synthesize the complementary DNA (cDNA). The library of small RNAs is amplified by PCR and after migration on polyacrylamide gel the amplified small RNAs are cut out and extracted from the gel according to their size (length of about 105-150 bases, according to the supplier's instructions), eluted and resuspended in nuclease-free water. The concentration of nucleic acids is then measured and normalized before proceeding with preparation of the samples for sequencing.
For each microRNA sequenced, the number of sequences of the 5p strand and of the 3p strand of the microRNA was normalized to 10^6 sequences and converted to percentage abundance of expression for each of the microRNAs. The data were then normalized according to a linear model and an empirical Bayesian method using software R. For subsequent analyses, only the microRNAs were retained for which the percentage expression (or abundance) is greater than 1% of the total of the microRNAs in at least one culture condition, with a |Log2 Ratio| below 0.5 and an adjusted P-value below 0.05.

Substance | Modulation (ratio of the level of intensity of expression in log2 in two stages of differentiation), D7 − D0 [log2] | Modulation (ratio of the level of intensity of expression in log2 in two stages of differentiation), FC − D7 [log2] | Modulation (ratio of the level of intensity of expression in log2 in two stages of differentiation), WD − D0 [log2] | Modulation (ratio of the level of intensity of expression in log2 in two stages of differentiation), WD − FC [log2] | Abundance (%), D0 [%] | Level of intensity of expression in log2, D0 [log2] | Abundance (%), D7 [%] | Level of intensity of expression in log2, D7 [log2] | Abundance (%), FC [%] | Level of intensity of expression in log2, FC [log2] | Abundance (%), WD [%] | Level of intensity of expression in log2, WD [log2] | Level of intensity of expression in log2 At the differentiated stage (WD) measured in HTS [log2]
hsa-miR-449c: human miRNA, SEQ ID No. 201 (UAGGCAGUGUAUUGCUAGCGGCUGU; expressed or natural sequence; listed as Homo sapiens) | 2.59 | 7.44 | 9.44 | −0.59 | 0.00 | 1.54 | 0.00 | 4.13 | 0.32 | 11.57 | 0.20 | 10.98 | 10.98
hsa-miR-1975: human miRNA, SEQ ID No. 15 (CCCCCACAACCGCGCUUGACUAGCU; expressed or natural sequence; listed as Homo sapiens) | 2.13 | 0.34 | 2.93 | 0.46 | 0.48 | 11.08 | 2.09 | 13.22 | 2.56 | 13.55 | 2.67 | 14.01 | 11.22

Reference: patent US9023821B2, “Use of MicroRNA for treating diseases associated with a dysfunction of the cilia in multiciliated epithelial cells” (Centre National de la Recherche Scientifique, priority 2009, dated 2015)
